Assay [1] is described as follows: Dissociation constant to estimate the calcium binding to the compound at the ratio of 2:1.
Assay [2] in a line: Dissociation constant to estimate the calcium binding to the compound at the ratio of 1:1.

SMILES strings stand for the structures.

On to `COC(=O)C1=C(C)NC(C)=C(C(=O)OCCN(C)Cc2ccccc2)C1c1cccc([N+](=O)[O-])c1` (configuration not stated), for which the K2 in assay [1] is 26 µM. Besides, in assay [2], the K1 was 100 µM.

The record behind these values is ChEMBL document CHEMBL1127296, “Interaction of calcium channel antagonists with calcium: structural studies on nicardipine and its Ca2+ complex” (J Med Chem, 1994).
